Columns and labels:
[1] = tested on: AP1, P53, Nrf2, and NF-κB; conditions: for Toxic (natural products exceeding Score 3, Venn diagram list Fig. 3c): human
[2] = tested on: CYP3A4; conditions: cited from earlier work
[3] = tested on: CYP3A5; design: method as in doi:10.1016/j.ccr.2020.213600; conditions: cited from earlier work
[4] = tested on: CYP3A; design: method as in PMID 30778299; conditions: cited from earlier work
[5] = tested on: CYP3A4; design: method as in PMID 20959500; conditions: via the activation of NR1I2; cited from earlier work
[6] = tested on: AP1; conditions: AP1 cell line, CPPA 6.25, 12.5, 25 μM, 24 h, S9 fraction (Fig. 2b)
[7] = tested on: P53
[8] = tested on: Nrf2
[9] = tested on: NF-κB; conditions: NF-κB cell line, CPPA 6.25, 12.5, 25 μM, 24 h, S9 fraction (Fig. 2b)
[10] = tested on: Hepa-ToxMOA cell lines (HepG2); conditions: four Hepa-ToxMOA cell lines, increasing CPPA concentration (6.25, 12.5, 25 μM), 1% S9 treatment, 24 h
[11] = tested on: diabetic mice; design: method as in PMID 34678724; conditions: cited from earlier work
[12] = tested on: liver fibrosis; design: method as in PMID 30502394; conditions: cited from earlier work
[13] = tested on: CYP2C19; design: method as in PMID 25815638; conditions: causing mitochondrial dysfunction and hepatotoxicity; cited from earlier work
[14] = tested on: diabetic C57BL/KsJ-db/db mice; design: method as in PMID 29554661; conditions: cited from earlier work

CC(=O)O[C@H]1C[C@]2(O)[C@@H]3CC[C@@H]4C[C@@H](O)CC[C@]4(C)[C@H]3CC[C@]2(C)[C@H]1c1ccc(=O)oc1 [Bufotalin]
active (increased GFP intensity) for all Hepa-ToxMOA cell lines (Fig. 3d) [1]: commonly active
sum of activity scores compared between metabolic activation and non-metabolic conditions [1]: more active without metabolic activation
Toxic (natural products exceeding Score 3, Venn diagram list Fig. 3c) [1]: S9- only
substrate of CYP3A4 [2]: substrates
substrate of CYP3A5 [3]: substrates
metabolism by CYP3A [4]: metabolized by CYP3A to 5ß-hydroxy-bufotalin

CC[C@]1(O)C[C@@H]2CN(CCc3c([nH]c4ccccc34)[C@@](C(=O)OC)(c3cc4c(cc3OC)N(C)[C@H]3[C@@](O)(C(=O)OC)[C@H](OC(C)=O)[C@]5(CC)C=CCN6CC[C@]43[C@@H]65)C2)C1 [vinblastine, reference compound]
induction of CYP3A4 [5]: induce CYP3A4
substrate of CYP3A4 [2]: substrate

O=P1(N(CCCl)CCCl)NCCCO1 (stereo not drawn) [CPPA, cyclophosphamide, reference compound]
GFP intensity [6]: increased in a dose-dependent manner
GFP intensity [7]: tendency to increase, although not in a dose-dependent manner
GFP intensity [8]: increased in a dose-dependent manner
GFP intensity [9]: increased in a dose-dependent manner
GFP intensity with S9 fractions compared to without S9 fractions [1]: higher
cell viability [10]: significantly reduced

CC(C)=CCc1c(O)cc2oc3cc(O)c(O)c(CC=C(C)C)c3c(=O)c2c1O [Gamma-mangostin]
fasting blood glucose levels [11]: attenuate fasting blood glucose levels
effect on liver fibrosis [12]: alleviate liver fibrosis

O=C(O)c1cc(O)c2c(c1)C(=O)c1cccc(O)c1C2=O [Rhein]
metabolic activation by CYP2C19 [13]: metabolically activated by CYP2C19

CC(C)=CC[C@H](O)C1=CC(=O)c2c(O)ccc(O)c2C1=O [Alkannin]
sum of activity scores compared between metabolic activation and non-metabolic conditions [1]: more active without metabolic activation
toxicity in Hepa-ToxMOA cell lines under metabolic activity conditions [1]: reduced toxicity
Toxic (natural products exceeding Score 3, Venn diagram list Fig. 3c) [1]: S9- only
effect on liver injury [14]: hepatoprotective effects

Source: paper PMC10881971, “Hepa-ToxMOA: a pathway-screening method for evaluating cellular stress and hepatic metabolic-dependent toxicity of natural products” (Scientific Reports, 2024)
